Consider 13 compounds from patent publication US11395854B2, “Trialkyl cationic lipids and methods of use thereof” (ARBUTUS BIOPHARMA CORPORATION, priority 2012, dated 2022).

The test system of assay [1] is ApoB expression in the livers (Liver ApoB:GAPD mRNA ratio). The assay is described as follows: murine ApoB siRNA activity model: ApoB knockdown in liver by nucleic acid-lipid particles containing the cationic lipid. In kind it is in vivo, female BALB/c mice. How it is done: This Example compares the effectiveness, in a murine ApoB siRNA activity model, of short chain trialkyl lipids of the present invention with lipids having longer alkyl chains but which are otherwise structurally identical to the short chain trialkyl lipids.
Nucleic acid-lipid particle formulations containing cationic lipids were assessed for their ability to knockdown ApoB expression in the livers of 7 to 9 week old female BALB/c mice. Mice were dosed intravenously (tail vein) in groups of three at either 0.02, 0.03 or 0.05 mg/kg. ApoB knockdown (normalized to the housekeeping gene GAPDH) was measured relative to PBS as a negative control. Each experiment was terminated at 48 hours after dosing.
For comparison to a positive control, the performance of short chain trialkyl lipids of the present invention was compared to a potent cationic lipid, referred to as C2K, that is known to facilitate nucleic acid delivery, in vivo, in nucleic acid-lipid particles (Nature Biotech., Vol 28(2),172 (2010)).

In assay [2] the test system is ApoB (normalized to the housekeeping gene GAPDH), liver. The assay is described as follows: murine ApoB model with a different, less potent siRNA sequence; liver ApoB silencing via Quantigene Assay. The format is in vivo, Mice. As to conditions: 0.04 mg/kg siRNA; for ApoB gene silencing relative to PBS control (Liver ApoB:GAPD mRNA ratio): intravenous (tail vein), 48 h after dosing, different, less potent siRNA sequence. How it is done: In another experiment, two more lipids of the present invention (Compounds 62 and 71) were formulated into lipid nanoparticles with siRNA to target ApoB. Mice were dosed intravenously (tail vein) and sacrificed 48 h after dosing. Livers were harvested and homogenized, and the level of ApoB silencing (normalized to the housekeeping gene GAPDH) then measured via Quantigene Assay. The results are shown in Table 6 and are expressed as a percentage, relative to a PBS-treated negative control group. […] Inter-experiment comparisons are therefore not possible: […]

The mark [3] stands for this setting: injected dose of 0.03 mg/kg, separate experiment.

Take `CCCCC/C=C\CCCC(CCC/C=C\CCCCC)C(CCC/C=C\CCCCC)OC(=O)CCCN(C)C` (centres unmarked) [Compound 9]: the “activity compared to C2K” value in assay [1] (injected dose of 0.02 mg/kg) is given as “greater activity than C2K”. In the case of `CCCCC/C=C\CCCC(CCC/C=C\CCCCC)C(CCC/C=C\CCCCC)OC(=O)CCCCCN(C)C` (centres unmarked) [Compound 11, (6Z,16Z)-12-((Z)-dec-4-enyl)docosa-6,16-dien-11-yl 6-(dimethylamino)hexanoate], the “activity compared to C2K” value in assay [1] (setting [3]) is on record as “greater activity than C2K”. Regarding `CCCCC/C=C\CCCC(CCC/C=C\CCCCC)C(CCC/C=C\CCCCC)OC(=O)CCCCN(C)C` (centres unmarked) [Compound 13, (6Z,16Z)-12-((Z)-dec-4-enyl)docosa-6,16-dien-11-yl 5-(dimethylamino)pentanoate], the “activity compared to C2K” value in assay [1] (injected dose of 0.02 mg/kg) and in assay [1] (setting [3]) was “greater activity than C2K” throughout. Take `CCCCC/C=C\CCCC(CCC/C=C\CCCCC)C(CC/C=C\CCCCC)OC(=O)CCCCN(C)C` (centres unmarked) [Compound 19, (6Z,15Z)-11-((Z)-dec-4-enyl)henicosa-6,15-dien-10-yl 5-(dimethylamino)pentanoate]: the “activity compared to C2K” value in assay [1] (injected dose of 0.02 mg/kg) and in assay [1] (setting [3]) was “greater activity than C2K” in each case. With `CCCCC/C=C\CCCC(CCC/C=C\CCCCC)C(CC/C=C\CCCCC)OC(=O)CCCN(C)C` (centres unmarked) [Compound 22, (6Z,15Z)-11-((Z)-dec-4-enyl)henicosa-6,15-dien-10-yl 4-(dimethylamino)butanoate], the “activity compared to C2K” value in assay [1] (injected dose of 0.02 mg/kg) is recorded as “greater activity than C2K”. On to `CCCCC/C=C\CCCC(CCC/C=C\CCCCC)C(CCC/C=C\CCCCC)OC(=O)N(C)CCCN(C)C` (centres unmarked) [Compound 23, (6Z,16Z)-12-((Z)-dec-4-enyl)docosa-6,16-dien-11-yl 3-(dimethylamino)propyl(methyl)carbamate], for which the “activity compared to C2K” value in assay [1] (setting [3]) was “greater activity than C2K”. Same read-out and setting: in the case of `CCCCC/C=C\CCCC(CCC/C=C\CCCCC)C(CCC/C=C\CCCCC)OC(=O)NCCN(C)C` (centres unmarked) [Compound 25, (6Z,16Z)-12-((Z)-dec-4-enyl)docosa-6,16-dien-11-yl 2-(dimethylamino)ethylcarbamate] it was “greater activity than C2K”.

In the case of `CCCCC/C=C\CCCC(CCC/C=C\CCCCCC)C(CC/C=C\CCCCC)OC(=O)NCCCN(C)C` (centres unmarked) [Compound 27, (6Z,15Z)-11-((Z)-dec-4-en-1-yl)docosa-6,15-dien-10-yl (3-(dimethylamino)propyl)carbamate], the “activity compared to C2K” value in assay [1] (injected dose of 0.02 mg/kg) is “greater activity than C2K”. Take `CCCCC/C=C\CCC(CC/C=C\CCCCC)C(CC/C=C\CCCCC)OC(=O)CCCN(C)C` (centres unmarked) [Compound 40]: the “activity compared to C2K” value in assay [1] (injected dose of 0.02 mg/kg) was “greater activity than C2K”.

Take `CCCCC/C=C\CCCC(OC(=O)CCCCN(C)C)C(CCCCCCCCCC)CCCCCCCCCC` (centres unmarked) [Compound 50, (Z)-12-decyldocos-6-en-11-yl 5-(dimethylamino)pentanoate]: the “activity compared to C2K” value in assay [1] (injected dose of 0.02 mg/kg) is on record as “greater activity than C2K”. As for `CCCCC/C=C\CCCC(CCC/C=C\CCCCC)C(CCC/C=C\CCCCC)OCCCCN(C)C` (centres unmarked) [Compound 62, 4-(((6Z,16Z)-12-((Z)-dec-4-en-1-yl)docosa-6,16-dien-11-yl)oxy)-N,N-dimethylbutan-1-amine], in assay [2], the “activity compared to the DLin-MP-DMA control” value was “significantly more active” and the “ApoB gene silencing relative to PBS control (Liver ApoB:GAPD mRNA ratio)” value was −56%. `CC(C)CCCC(C)CCC(CCC(C)CCCC(C)C)C(CCC(C)CCCC(C)C)OC(=O)CCCCN(C)C` (centres unmarked) [Compound 71, 10-(3,7-dimethyloctyl)-2,6,13,17-tetramethyloctadecan-9-yl 5-(dimethylamino)pentanoate]: the “ApoB gene silencing relative to PBS control (Liver ApoB:GAPD mRNA ratio)” value in assay [2] is −29%. Regarding `CCCCC/C=C\C/C=C\CCCCCCCCC(CCCCCCCC/C=C\C/C=C\CCCCC)OCCCN(C)C` [DLin-MP-DMA, reference compound], the “effectiveness compared to C2K” value in assay [1] (three separate experiments, 0.03 or 0.05 mg/kg) is on record as “more effective than C2K”. In addition, in assay [2], the “ApoB gene silencing relative to PBS control (Liver ApoB:GAPD mRNA ratio)” value is recorded as −32%.
